The results in this text go back to PubChem BioAssay (NCI).

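Interpolation was linear, between the two tested concentrations surrounding the appropriate level; five concentrations were tested over 48 hours in 96-well plates. TGI: total growth inhibition.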

What all share (assay): NCI-60 cell line screen, 48 h
The test system of assay [1] is M19-MEL melanoma.
The test system of assay [2] is NCI-H226 lung.
For assay [3], the system named is A498 renal.
In assay [4] the test system is OVCAR-4 ovarian.
For assay [5], the system named is K-562 leukemia.
Assay [6] relates to COLO 205 colon.
In assay [7] the test system is 786-0 renal.
Assay [8] concerns LOX IMVI melanoma.
For assay [9], the system named is HCT-15 colon.
Assay [10] concerns NCI-H522 lung.
The subject of assay [11] is EKVX NSCLC.
In assay [12] the test system is HS 578T breast.

Regarding `Cc1ccc(C)c2c1C1CCCCC3(OCCCO3)C21O` (stereo not drawn), the TGI in assay [1], in assay [2], in [3], in assay [4], in assay [5] and in [6] was greater than 100 µM throughout. The TGI in assay [7], in [8], in assay [9] and in assay [10] was greater than 100 µM in each case.

Take `Cc1nc2ccc(NCCN(C)C)c3c(=O)c4ccccc4n1c23`: the TGI in [1] is 19.5 µM; in assay [2], 8.69 µM; in assay [3], 12.1 µM; in assay [4], 6.82 µM; in assay [5] it was greater than 54.8 µM; in assay [6] it was 11.8 µM. For the same compound, the TGI is 14.2 µM in assay [11]; 15.7 µM in assay [7]; 2.96 µM in assay [8]; 9.15 µM in assay [12]; 6.22 µM in [9]; 9.91 µM in assay [10].

Regarding `Nc1cccc(-c2cc(=O)c3cc4c(cc3[nH]2)OCO4)c1`, the TGI in assay [1] is greater than 100 µM; in assay [2], greater than 30.4 µM; in [3], greater than 100 µM; in assay [4], greater than 100 µM; in [5] it was greater than 100 µM; in [6], 5.93 µM. In addition, the TGI in assay [11] was greater than 100 µM; in [7], greater than 100 µM; in [8], 59.7 µM; in assay [12], 6.56 µM; in assay [9], 21.8 µM; in [10], 0.881 µM.

Take `CNC(=S)N/N=C/C(C)=N/NC(=S)NC`: the TGI in assay [1], in assay [3], in assay [6], in [11], in [7] and in assay [8] was greater than 100 µM throughout. The TGI in [9] and in [10] was greater than 100 µM each time.

`C/C(=C\C(=O)Nc1ccc2n[nH]nc2c1)Nc1ccc2n[nH]nc2c1`: the TGI in assay [1], in [2], in assay [3], in [4], in assay [5] and in [6] was greater than 100 µM each time. The TGI in assay [11], in [7], in assay [8], in assay [9] and in assay [10] was greater than 100 µM each time.

For the compound `COc1cccc(NC(=O)CC(=O)NN)c1`, the TGI in assay [2], in assay [3], in assay [4], in assay [5], in assay [6] and in [11] was greater than 100 µM each time. For the same compound, the TGI in [7], in assay [8], in assay [12], in assay [9] and in assay [10] was greater than 100 µM in each case.

`Nc1nc(SCc2ccccc2Cl)c2ncn(C3OC(CO)C(O)C3O)c2n1` (stereo not drawn): the TGI in [1], in [3], in [4], in assay [5], in assay [6] and in assay [7] was greater than 100 µM in each case. For the same compound, the TGI in assay [8], in assay [9] and in assay [10] was greater than 100 µM each time.

Consider `Nc1nc(Cl)c2ncn(CCCC(c3ccccc3)P(=O)(O)O)c2n1` (stereo not drawn), for which the TGI in assay [1], in assay [3], in [5], in [6], in [7] and in assay [8] was greater than 100 µM each time. Also, the TGI in [9] and in [10] was greater than 100 µM throughout.

With `CSc1cc(Cl)c(C)cc1S(=O)(=O)NC(=O)NNc1ccc(C)cc1`, the TGI in assay [2], in assay [3], in assay [4], in assay [5], in assay [6] and in [11] was greater than 100 µM each time. For the same compound, the TGI in [7], in assay [8], in assay [12], in assay [9] and in assay [10] was greater than 100 µM throughout.

As to `O=C1Cc2cc3ccccc3nc2-c2ccccc2N1`, the TGI in assay [2], in assay [3], in assay [4], in assay [5], in assay [6] and in [11] was greater than 100 µM each time. Moreover, the TGI in assay [7], in assay [8], in assay [12], in assay [9] and in [10] was greater than 100 µM each time.
